Assay [1] concerns cofilin rods in cultured mouse hippocampal neurons. The class given is cell-based. How it is done: (§1) Aβd/t was isolated from medium of cultured 7PA2 cells, a CHO cell line expressing a form of human APP found in Familial AD. The amount of ABd/t is quantified by Western blot with standards of synthetic Aβ monomer. Neuronal cultures, fixation, permeabilization, blocking and immunostaining is performed starting with E16.5 mouse hippocampal neurons by common methods in broad use.
(§2) Images of fixed neurons immunostained for cofilin, growth cones and nuclei captured across the entire coverslip are exported to ImageJ. Macro functions are applied to set local threshold and shape/size segmentation for both the cofilin and growth cone antibodies. Cofilin stained material that is not within neurites is eliminated. Results are reported as rods/nucleus, number of rods per area, rods as percent of total area, or, if NeuN stained or identified morphologically, rods per neuron.
(§3) Amyloid beta (Aβ) trimer was added to pure cultures of mouse hippocampal neurons, devoid of immune cells, microglia, and their secreted inflammatory mediators to evaluate actin dynamics and cofilin-rod formation. […] The relevance is that rod pathology leads to synapse loss in people that correlates with dementia.

In assay [2] the target is T1, CCR5 (Mus musculus, UniProt P51682). The conditions noted are these: FIG. 2A; CCR5 tropic gp120; cultured mouse hippocampal neurons. How it is done:
as §1, §2

Assay [3] addresses T1, CCR5. Particulars: pharmacologic blockade of CCR5; cited from earlier work.
Assay [4] deals with growth cones in pure cultures of mouse hippocampal neurons. Particulars: FIG. 5; Aβ trimer-treated neurons, 2G13 antibody stain. On the procedure: as §1, §2, §3
In assay [5] the test system is dendritic spine morphology, dendritic arborization and functional deficits. The conditions noted are these: animal model of HIV cognitive decline; cited from earlier work.
Assay [6] concerns cognitive deficits in HAND. Particulars: phase 2 human trials and brain scans; cited from earlier work.
Assay [7] relates to CXCR4. The conditions noted are these: in vivo; cited from earlier work.
For assay [8], the target named is CXCR4 (Mus musculus, UniProt P70658). Particulars: FIG. 2A; CXCR4 tropic gp120; cultured mouse hippocampal neurons. On the procedure: as §1, §2
Sequence of CXCR4 (Mus musculus, UniProt P70658) (P70658 whole entry): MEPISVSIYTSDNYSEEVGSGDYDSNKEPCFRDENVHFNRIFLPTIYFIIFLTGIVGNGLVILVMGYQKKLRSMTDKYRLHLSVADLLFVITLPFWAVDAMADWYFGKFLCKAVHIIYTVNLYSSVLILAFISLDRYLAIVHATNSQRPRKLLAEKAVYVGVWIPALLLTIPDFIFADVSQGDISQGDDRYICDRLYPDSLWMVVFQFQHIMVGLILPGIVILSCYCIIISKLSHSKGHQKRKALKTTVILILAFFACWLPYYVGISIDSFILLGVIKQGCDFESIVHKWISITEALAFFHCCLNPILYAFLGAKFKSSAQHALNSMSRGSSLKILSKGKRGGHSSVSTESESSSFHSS

T1 sequence (P51682 whole entry): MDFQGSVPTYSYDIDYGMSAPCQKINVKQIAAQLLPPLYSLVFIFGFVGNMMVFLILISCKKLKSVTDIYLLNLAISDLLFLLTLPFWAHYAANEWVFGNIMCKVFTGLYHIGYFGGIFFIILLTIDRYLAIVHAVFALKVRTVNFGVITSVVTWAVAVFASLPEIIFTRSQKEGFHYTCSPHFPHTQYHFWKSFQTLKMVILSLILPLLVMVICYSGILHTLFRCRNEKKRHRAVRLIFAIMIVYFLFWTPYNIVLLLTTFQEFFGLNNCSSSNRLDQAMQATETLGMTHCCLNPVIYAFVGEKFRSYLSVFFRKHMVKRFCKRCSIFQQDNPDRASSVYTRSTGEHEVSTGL

In the case of maraviroc, the “early pathology of synapse loss (cofilin-rod formation) induced by beta-amyloid (Aβ-trimer/dimer)” value in assay [1] (FIG. 2B, blocking neuronal CCR5) was “can be reversed”. The “inhibition of gp120-induced cofilin-rod formation through CCR5” value in assay [2] is listed as “inhibited”. Also, the “dendritic spines and neurite cortical projections after stroke and traumatic brain injury” value in assay [3] was “preservation of dendritic spines and new patterns of neurite cortical projections”.
On to all-D-TTNYT [RAP-103], for which, in assay [1], the “area within the neurons occupied by cofilin-rods, caused by amyloid beta (Aβ)” value is reported as “reducing”; the “area within the neurons occupied by cofilin-rods, caused by pre-formed fibrils (PPF) of alpha-synuclein” value is “reducing”; the “block Aβ-induced formation of cofilin rods (percent of neurons expressing cofilin-rods)” value is reported as “block”; the “block TNF-induced formation of cofilin rods” value is recorded as “block”. Also, in assay [1], the “cofilin rod-like structures at the ends of dendrites” value is given as “eliminated”. Further, the growth cone formation result in assay [4] is “promote growth cone formation”.
For the molecule all-D-ASTTTNYT [RAP-310], in assay [1], the “block Aβ-induced formation of cofilin rods (percent of neurons expressing cofilin-rods)” value is given as “block” and the “block TNF-induced formation of cofilin rods” value is on record as “block”.
As for Dala1-peptide T-amide [DAPTA], in assay [5], the “dendritic spine morphology, dendritic arborization and functional deficits” value is “protection of dendritic spine morphology, expansion of dendritic arborization and reversal of functional deficits”. For the same molecule, the “cognitive deficits in HAND” value in assay [6] was “able to reverse cognitive deficits”.
On to `c1cc(CN2CCCNCCNCCCNCC2)ccc1CN1CCCNCCNCCCNCC1` [AMD3100], for which, in assay [7], the “recovery after traumatic brain injury” value is on record as “improved recovery”. In assay [8], the “inhibition of gp120-induced cofilin-rod formation through CXCR4” value is given as “inhibited”.
